Data set [1] deals with T1, GST-hLGK1 (human hepatic GK) (Homo sapiens, UniProt P35557).
T1 construct: made in house; host or cells: Escherichia coli BL21 (pGEX6P-2/hLGK1)
T1 sequence (P35557 1-464 isoform P35557-3): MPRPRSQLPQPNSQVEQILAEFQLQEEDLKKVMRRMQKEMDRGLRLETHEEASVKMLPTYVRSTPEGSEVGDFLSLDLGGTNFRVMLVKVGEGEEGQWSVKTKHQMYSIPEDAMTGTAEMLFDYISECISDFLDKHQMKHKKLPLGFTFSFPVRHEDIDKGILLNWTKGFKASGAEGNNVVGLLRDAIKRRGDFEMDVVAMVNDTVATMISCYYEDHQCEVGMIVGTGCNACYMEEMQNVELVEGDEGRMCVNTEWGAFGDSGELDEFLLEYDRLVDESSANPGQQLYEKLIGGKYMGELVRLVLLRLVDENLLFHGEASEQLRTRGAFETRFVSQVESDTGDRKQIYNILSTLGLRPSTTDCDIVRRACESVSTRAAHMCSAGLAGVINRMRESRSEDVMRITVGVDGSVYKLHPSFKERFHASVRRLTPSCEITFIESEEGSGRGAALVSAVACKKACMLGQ
Description: Measurement of GK activation value (Mant-ATP/Mant-ADP capillary electrophoresis, reaction rate). The data set is classed as biochemical. Conditions: concentration necessary for activation of 50% of the maximum activity value; 37° C., 60 min. As to the method:
A plasmid DNA for expression of protein (GST-hLGK1) containing GST (Glutathione S-transferase) added to human hepatic GK amino terminal in Escherichia coli was prepared as follows.
BL21 strain (Stratagene) transformed with pGEX6P-2/hLGK1 obtained in Reference Example 1A was cultured with shaking in a 200 ml Erlenmeyer flask containing a 100 μg/ml ampicillin-containing LB medium (50 ml) at 37° C. for 14 hr. The culture medium (25 ml) was diluted with 100 μg/ml ampicillin-containing LB medium (225 ml), and further cultured with shaking in a 1 L Erlenmeyer flask at 37° C. for 1 hr. After cooling on ice the Erlenmeyer flask after culture, 100 mM Isopropyl-Thio-β-D-Galactopyranoside (IPTG) (125 μL) was added (final concentration 50 μM), and the mixture was cultured at 17° C. for 20 hr. After centrifugation of the culture medium, the obtained cells were ultrasonicated, and the object protein (GST-hLGK1) was purified from the supernatant using Glutathione Sepharose 4B (Amersham Biosciences).
A 50% solution (5 μL) of the test compound in dimethyl sulfoxide was added to each well of a 384 well black plate (Nalge Nunc). Then, 35 μL of a liquid obtained by diluting GST-hLGK1 obtained in Reference Example 2A with a measurement buffer (50 mM HEPES (pH 7.4), containing 200 mM KCl, 5 mM MgCl2, 2.5 mM DTT and 50 μM 2′-(or-3′)-O—(N-methylanthraniloyl)adenosine 5′-triphosphate (Mant-ATP) (Jena Bioscience)) was added to each well to 6 μg/mL.
Each well was stood at 37° C. for 10 min, and a 25 mM D-glucose solution (10 μL) was added to start the reaction.
Each well after the start of the reaction was stood at 37° C. for 60 min, and the reaction was quenched by adding 25 μL of a reaction quenching solution (200 mM HEPES (pH 7.4), containing 20 mM MgCl2, 200 mM EDTA, 0.03% Triton-X 100, 0.3% Coating 3 reagent (Caliper Life Sciences)).
Mant-ATP (substrate) and Mant-ADP (reaction resultant product) were separated from each well after quenching the reaction, with a microchip type capillary electrophoresis apparatus 250HTS (Caliper Life Sciences). The reaction rate [(peak height of reaction resultant product)/(peak height of reaction resultant product+peak height of substrate)×100(%)] was calculated from the ratio of the substrate peak height and the reaction resultant product peak height, which were obtained by fluorescence detection (excitation wavelength 355 nm, measurement wavelength 460 nm), and used as an index of the GK activity.
For the control, the reaction rate was calculated in the same manner as in the above except that “50% dimethyl sulfoxide solution” was used instead of the “50% solution of the test compound in dimethyl sulfoxide”.
A percentage obtained by dividing the reaction rate of the well added with the test compound (test compound addition group) by the reaction rate of the well added with a 50% dimethyl sulfoxide solution alone (control group) was taken as the GK activation value by the test compound, and the concentration of the test compound necessary for the activation of 50% of the maximum activity value is shown as an EC50 value.

Structures are written as SMILES.

The values that follow come from patent US8124617B2, “Imidazopyridine compounds” (Takeda San Diego, Inc., priority 2005, dated 2012).

In the case of `CC(C)Oc1cc(OCc2ccccc2)cc(-c2nc3cccnc3[nH]2)c1` [Example 2, 2-[3-(benzyloxy)-5-isopropoxyphenyl]-3H-imidazo[4,5-b]pyridine], the melting point (usually the temperature, or range, at which the solid turns liquid) was 136 to 137 °C. A half-maximal response in data set [1] (EC50) required 130 nM.
In turn, `CC(C)Oc1cc(OCCc2ccsc2)cc(-c2nc3cccnc3[nH]2)c1` [Example 3, 2-{3-isopropoxy-5-[2-(3-thienyl)ethoxy]phenyl}-3H-imidazo[4,5-b]pyridine] came in with a melting point of 82 to 83 °C. In addition, a half-maximal effect in data set [1] (EC50) was put at 150 nM.
The like results for `CC(C)Oc1cc(OCCCc2cccnc2)cc(-c2nc3cccnc3[nH]2)c1` [Example 4, 2-[3-isopropoxy-5-(3-pyridin-3-ylpropoxy)phenyl]-3H-imidazo[4,5-b]pyridine] were, in that order, 110 to 112 °C and 1600 nM.
Regarding `COc1ccc(OCc2ccccc2)cc1-c1nc2cccnc2[nH]1` [Example 5, 2-(5-(benzyloxy)-2-methoxyphenyl)-3H-imidazo[4,5-b]pyridine], in data set [1], the EC50 (in general, the concentration that produces a half-maximal response) turned out to be 2100 nM.
Still for that read-out and setting: the figure for `CC(C)Oc1ccc(OCc2ccccc2)cc1-c1nc2cc(-c3cccnc3)cnc2[nH]1` [Example 40, 2-[5-(benzyloxy)-2-isopropoxyphenyl]-6-pyridin-3-yl-3H-imidazo[4,5-b]pyridine] is 440 nM.
The molecule `COc1ccc(-c2cnc3[nH]c(-c4cc(OCc5ccccc5)ccc4OC(C)C)nc3c2)c(OC)c1` [Example 45, 2-[5-(benzyloxy)-2-isopropoxyphenyl]-6-(2,4-dimethoxyphenyl)-3H-imidazo[4,5-b]pyridine] showed an EC50 in data set [1] of 280 nM.
`Cc1ccccc1-c1cnc2[nH]c(-c3cc(OCc4ccccc4)ccc3OC(C)C)nc2c1` [Example 47, 2-[5-(benzyloxy)-2-isopropoxyphenyl]-6-(2-methylphenyl)-3H-imidazo[4,5-b]pyridine] registered an EC50 in data set [1] of 400 nM.
The same measure, in the same setting: the figure for `COc1ccccc1-c1cnc2[nH]c(-c3cc(OCc4ccccc4)ccc3OC(C)C)nc2c1` [Example 48, 2-[5-(benzyloxy)-2-isopropoxyphenyl]-6-(2-methoxyphenyl)-3H-imidazo[4,5-b]pyridine] is 240 nM; for `CC(C)Oc1cc(OCc2ccccc2)ccc1-c1nc2cc(-c3ccc(F)cc3)cnc2[nH]1` [Example 50, 2-[4-(benzyloxy)-2-isopropoxyphenyl]-6-(4-fluorophenyl)-3H-imidazo[4,5-b]pyridine] it is 290 nM.
On to `COc1ccc(-c2cnc3[nH]c(-c4ccc(OCc5ccccc5)cc4OC(C)C)nc3c2)cc1` [Example 51, 2-[4-(benzyloxy)-2-isopropoxyphenyl]-6-(4-methoxyphenyl)-3H-imidazo[4,5-b]pyridine], for which the EC50 in data set [1] worked out at 250 nM.
Still for that read-out and setting: the figure for `CC(C)Oc1cc(OCc2ccccc2)cc(-c2nc3cc(-c4cccnc4)cnc3[nH]2)c1` [Example 61, 2-[3-(benzyloxy)-5-isopropoxyphenyl]-6-pyridin-3-yl-3H-imidazo[4,5-b]pyridine] is 1100 nM; for `CC(C)Oc1cc(OCc2ccccc2)ccc1-c1nc2cc(-c3ccccc3F)cnc2[nH]1` [Example 72, 2-[4-(benzyloxy)-2-isopropoxyphenyl]-6-(2-fluorophenyl)-3H-imidazo[4,5-b]pyridine] it is 200 nM; for `CC(C)Oc1cc(OCc2ccccc2)ccc1-c1nc2cc(-c3cccc(F)c3)cnc2[nH]1` [Example 73, 2-[4-(benzyloxy)-2-isopropoxyphenyl]-6-(3-fluorophenyl)-3H-imidazo[4,5-b]pyridine] it is 150 nM.
Turning to `CCOC(=O)c1cnc2[nH]c(-c3cc(OCc4ccccc4)ccc3OC(C)C)nc2c1` [Example 74, ethyl 2-[5-(benzyloxy)-2-isopropoxyphenyl]-3H-imidazo[4,5-b]pyridine-6-carboxylate], the melting point was 138 to 140 °C.
The molecule `CC(C)Oc1ccc(OCc2ccccc2)cc1-c1nc2cc(CO)cnc2[nH]1` [Example 76, {2-[5-(benzyloxy)-2-isopropoxyphenyl]-3H-imidazo[4,5-b]pyridin-6-yl}methanol] came in with a melting point of 167 to 168 °C. In data set [1], this molecule came in with an EC50 of 730 nM.
`CC(C)Oc1ccc(OCc2ccccc2)cc1-c1nc2cc(C=O)cnc2[nH]1` [Example 77, 2-[5-(benzyloxy)-2-isopropoxyphenyl]-3H-imidazo[4,5-b]pyridine-6-carbaldehyde] displayed a melting point of 170 to 171 °C.
In turn, `CC(C)CNCc1cnc2[nH]c(-c3cc(OCc4ccccc4)ccc3OC(C)C)nc2c1` [Example 78, N-({2-[5-(benzyloxy)-2-isopropoxyphenyl]-3H-imidazo[4,5-b]pyridin-6-yl}methyl)-2-methylpropan-1-amine] came in with a melting point of 101 to 103 °C.
In turn, `CC(C)Oc1ccc(OCc2ccccc2)cc1-c1nc2cc(CNCc3ccccc3)cnc2[nH]1` [Example 79, N-benzyl-1-{2-[5-(benzyloxy)-2-isopropoxyphenyl]-3H-imidazo[4,5-b]pyridin-6-yl}methaneamine] showed a melting point of 92 to 94 °C.
The molecule `CC(C)Oc1ccc(OCc2ccccc2)cc1-c1nc2cc(CNCCOc3ccccc3)cnc2[nH]1` [Example 80, N-({2-[5-(benzyloxy)-2-isopropoxyphenyl]-3H-imidazo[4,5-b]pyridin-6-yl}methyl)-2-phenoxyethaneamine] showed a melting point of 67 to 68 °C. Moreover, in data set [1], the EC50 stood at 820 nM.
`COCCNCc1cnc2[nH]c(-c3cc(OCc4ccccc4)ccc3OC(C)C)nc2c1` [Example 81, N-({2-[5-(benzyloxy)-2-isopropoxyphenyl]-3H-imidazo[4,5-b]pyridin-6-yl}methyl)-2-methoxyethaneamine] gave a melting point of 80 to 81 °C.
As for `COC(=O)CNCc1cnc2[nH]c(-c3cc(OCc4ccccc4)ccc3OC(C)C)nc2c1` [Example 82, methyl N-({2-[5-(benzyloxy)-2-isopropoxyphenyl]-3H-imidazo[4,5-b]pyridin-6-yl}methyl)glycinate], the melting point was 69 to 71 °C. In addition, the EC50 in data set [1] turned out to be 3700 nM.
Turning to `CC(C)Oc1ccc(OCc2ccccc2)cc1-c1nc2cc(CNCC(=O)O)cnc2[nH]1` [Example 83, N-({2-[5-(benzyloxy)-2-isopropoxyphenyl]-3H-imidazo[4,5-b]pyridin-6-yl}methyl)glycine], the melting point was 182 to 184 °C.
Still for that read-out and setting: with `CC(C)Oc1ccc(OCc2ccccc2)cc1-c1nc2ccc(C#N)nc2[nH]1` [Example 84, 2-[5-(benzyloxy)-2-isopropoxyphenyl]-3H-imidazo[4,5-b]pyridine-5-carbonitrile] the figure was 214 to 215 °C.
The same measure, in the same setting: with `CC(C)Oc1ccc(OCc2ccccc2)cc1-c1nc2ccc(CO)nc2[nH]1` [Example 87, {2-[5-(benzyloxy)-2-isopropoxyphenyl]-3H-imidazo[4,5-b]pyridin-5-yl}methanol] the figure was 167 to 168 °C.
